We go through 2 molecules from US20260166040A1 (AMGEN INC., priority 2022, published 2026).

Each structure is given as a SMILES string.

Data set [1] can be described thus: Phase I crossover study: plasma pharmacokinetics of sotorasib coadministered with rosuvastatin. It is filed as in vivo, human. The note with it: 960 mg sotorasib + 10 mg rosuvastatin, (range). The procedure:
Times of all PK samples were recorded to the nearest minute.

The nature of data set [2]: Phase I crossover study: safety and tolerability (treatment-emergent adverse events). It is filed as in vivo, human. Conditions: for Treatment-emergent adverse events: healthy subjects; for Safety and tolerability: healthy male and female subjects.
For a further data set, the target named is T1, BCRP transporter (Homo sapiens, UniProt Q9UNQ0).
T1 sequence (Q9UNQ0 1-655): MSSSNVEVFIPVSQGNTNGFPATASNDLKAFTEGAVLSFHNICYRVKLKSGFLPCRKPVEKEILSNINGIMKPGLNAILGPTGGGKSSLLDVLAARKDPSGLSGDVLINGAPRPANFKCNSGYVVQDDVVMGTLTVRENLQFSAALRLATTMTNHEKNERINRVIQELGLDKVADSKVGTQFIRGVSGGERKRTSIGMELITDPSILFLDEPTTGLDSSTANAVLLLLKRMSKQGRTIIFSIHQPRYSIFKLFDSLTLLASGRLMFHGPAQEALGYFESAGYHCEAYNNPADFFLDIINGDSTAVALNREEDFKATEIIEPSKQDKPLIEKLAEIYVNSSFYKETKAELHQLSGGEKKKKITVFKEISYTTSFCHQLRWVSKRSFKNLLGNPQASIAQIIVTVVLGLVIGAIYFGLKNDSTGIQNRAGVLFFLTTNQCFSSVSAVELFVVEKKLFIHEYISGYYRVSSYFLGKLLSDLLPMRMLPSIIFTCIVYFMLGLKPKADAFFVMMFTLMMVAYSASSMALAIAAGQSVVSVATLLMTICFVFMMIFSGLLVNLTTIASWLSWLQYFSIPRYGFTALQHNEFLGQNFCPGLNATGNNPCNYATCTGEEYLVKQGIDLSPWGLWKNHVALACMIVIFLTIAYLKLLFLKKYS
Nature of the data set: In vitro BCRP transporter inhibition. It is filed as in vitro ADME.

Data set [3] concerns phosphorylation of extracellular signal-regulated kinase (ERK). Conditions: preclinical studies; cited from earlier work.
The next data set is described as follows: clinical. The note with it: human, in vivo, 10 mg. The procedure:
On Day 1, rosuvastatin was administered as a single 10 mg dose (1×10 mg tablet).
All subjects fasted overnight (at least 10 hours) and refrained from consuming water for 1 hour prior to dosing. Subjects refrained from consuming water until 2 hours postdose, excluding the amount of water consumed at dosing, and fasted until 4 hours postdose. At all other times during the study, subjects may have consumed water ad libitum.
Blood samples for determination of rosuvastatin plasma concentrations and PK parameters were collected at hour 0 and at hours 0.5, 1, 2, 3, 4, 5, 6, 8, 10, 12, 24, 36, 48, 72, 96, and 120 hours postdose following administration of rosuvastatin on Days 1 and 6.
Pharmacokinetic analysis was carried out using actual dose administered (mg) and actual postdose blood sampling times. When an actual time was not recorded, it was set to missing and excluded from PK analysis and statistics with sponsor approval.
The parameters Cmax, time of the last quantifiable plasma concentration (tlast), and tmax were obtained directly from the concentration-time profiles. For multiple peaks, the highest postdose concentration was reported as Cmax. In the case that multiple peaks were of equal magnitude, the earliest tmax was reported.

The conditions of data set [4]: cited from earlier work.
Data set [5] relates to plasma proteins, mostly albumin. Conditions: reversible, independent of plasma concentrations; cited from earlier work.
The conditions of data set [6]: incidence !2%; cited from earlier work.

As to `C=CC(=O)N1CCN(c2nc(=O)n(-c3c(C)ccnc3C(C)C)c3nc(-c4c(O)cccc4F)c(F)cc23)[C@@H](C)C1` (atropisomer, axis not shown) [sotorasib], in data set [1], the tlast was 48.0 (24.0-48.0) h. Besides, in data set [2] (960 mg sotorasib coadministered with 10 mg rosuvastatin), the Treatment-emergent adverse events result is listed as “No treatment-emergent adverse events”. The Safety and tolerability entry in data set [2] (rosuvastatin 10 mg in combination with sotorasib 960 mg, single oral doses) is “safe and well tolerated”. Further, the BCRP inhibition entry at BCRP transporter is given as “inhibitor of BCRP transporter in vitro”. Further, the “Inhibition of ERK phosphorylation” value in data set [3] was “inhibited nearly all detectable phosphorylation”.
A word on the half-life: it is how long it takes for the measured level to halve. Lower therefore signals rapid decline. A word on the AUC(0-t): it is the area under the concentration-time curve up to a stated or last time point. Lower therefore signals less exposure. With `CC(C)c1nc(N(C)S(C)(=O)=O)nc(-c2ccc(F)cc2)c1/C=C/[C@@H](O)C[C@@H](O)CC(=O)O` [rosuvastatin], in “clinical” (both), the AUCinf is recorded as 36.2 (60.1) h*ng/mL, the “AUCinf GLSM” value was determined as 36.2 ng·h/mL, the AUClast GLSM was 33.2 ng·h/mL and the Cmax was 3.80 (57.8) ng/mL. In the data set “clinical” (both), the “Cmax GLSM” value came to 3.80 ng/mL, the half-life was 13.8 h and the tmax turned out to be 3 h. In the data set “clinical” (both, po), this molecule displayed an AUC(0-t) of 33.2 ng·h/mL. For the same molecule, the CL/F in the data set “clinical” is on record as 276 (60.1) L/h. The Treatment-emergent adverse events entry in data set [2] (10 mg rosuvastatin alone) is reported as “No treatment-emergent adverse events”. Further, in data set [2] (single oral dose rosuvastatin 10 mg alone), the Safety and tolerability entry is “safe and well tolerated”. Also, in data set [4] (human, in vivo), the Elimination half-life result is on record as “approximately 19 hours”; the “Excreted in the feces (rosuvastatin and its metabolites)” value is listed as 90%; the “Radiolabeled dose recovered as metabolite” value is “approximately 10%”. Further, the “Cmax and AUC dose dependence” value in data set [4] (oral administration) is reported as “increased in approximate proportion to dose”. Besides, the Absolute bioavailability result in data set [4] (oral) is given as “approximately 20%”. In addition, in data set [5], the “Bound to plasma proteins” value is 88%. In addition, the “Most commonly reported adverse reactions” value in data set [6] was “headache, myalgia, abdominal pain, asthenia, and nausea”.
